In the supplement of paper PMC3974653:
Where a name gives a salt, the structure may show the parent alone.

System: MTT (mouse pheochromocytoma)
Test: IC50 of cell viability (ATP content)
Conditions: (24 or 48 h)
Summary of the method: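 CellTiter-Glo ATP luminescence, read after 15 minutes, was used to assess MTT mouse pheochromocytoma cells treated for 24 or 48 hrs with library compounds (final 0.5 nM to 46 µM, 8 concentrations). The cells had been plated at 5 µl of 200,000 cells/ml per well in white 1536-well plates in DMEM with 5% FBS and 1% horse serum and cultured overnight at 37°C, 5% CO2. Normalisation set positive-control wells to 100% and DMSO wells to 0%. The IC50 was then determined by four-parameter logistic fitting.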

SMILES	IC50 of cell viability [µM]
FC1(F)C(F)(F)C(F)(F)C2(F)C(F)(F)C(F)(F)C(F)(F)C(F)(F)C2(F)C1(F)F (stereo not given) [PERFLUNAFENUM]	> 46
CCCN1C[C@H](CSC)C[C@@H]2c3cccc4[nH]cc(c34)C[C@H]21 [PERGOLIDE METHANESULFONATE]	> 46
CC1(C)C(\C=C(/Cl)Cl)C1C(=O)OCC2=CC=CC(OC3=CC=CC=C3)=C2 (stereo not given) [PERMETHRIN]	> 46
C=C(Nc1ccc(OCC)cc1)Nc1ccc(OCC)cc1 [PHENACAINE HYDROCHLORIDE]	> 46
NC(=O)NC(=O)Cc1ccccc1 [PHENACEMIDE]	> 46
NC(=O)NNc1ccccc1 [PHENICARBAZIDUM]	> 46
O=C(O)C(Cc1cc(I)c(O)c(I)c1)c1ccccc1 (stereo not given) [PHENIODOLUM NATRICUM]	> 46
O=S(=O)([O-])c1ccc(O)cc1 [PHENOLSULFONIC ACID]	> 46
CC(C)=CC1C(C(=O)OCc2cccc(Oc3ccccc3)c2)C1(C)C (stereo not given) [PHENOTHRIN]	> 46
CC1=CC=C(C=C1)N(C\C2=N\CCN2)C3=CC=CC(=C3)O [PHENTOLAMINE]	> 46
CCCCC1C(=O)N(c2ccccc2)N(c2ccccc2)C1=O [PHENYLBUTAZONE]	> 46
NNc1ccccc1 [PHENYLHYDRAZINE HYDROCHLORIDE]	> 46
CCC(O)c1ccccc1 (stereo not given) [PHENYLPROPANOL]	> 46
CN(C)CCOc1ccccc1Cc1ccccc1 [PHENYLTOLOXAMINE CITRATE]	> 46
O=C1NC(=O)C(c2ccccc2)(c2ccccc2)N1 [PHENYTOIN]	> 46
Oc1cc(O)cc(O)c1 [PHLOROGLUCINOL]	> 46
CCN(CC)C(=O)/C(Cl)=C(\C)OP(=O)(OC)OC [PHOSPHAMIDON]	> 46
O=C(O)c1ccccc1C(=O)Nc1ccc([S+](=O)([O-])Nc2nccs2)cc1 [PHTHALYLSULFATHIAZOLE]	> 46
CCCCCCCCCCCCCCCC(=O)O[C@@H]1CC(C)=C(\C=C/C(C)=C\C=C/C(C)=C\C=C\C=C(C)\C=C\C=C(C)\C=C\C2=C(C)C[C@@H](OC(=O)CCCCCCCCCCCCCCC)CC2(C)C)C(C)(C)C1 [PHYSALIEN with TLC]	> 46
CNC(=O)Oc1ccc2c(c1)[C@]1(C)CCN(C)[C@@H]1N2C [PHYSOSTIGMINE]	> 46

SMILES	IC50 of cell viability [µM]
Nc1c(NC/C=C\COc2cc(CN3CCCCC3)ccn2)c(=O)c1=O [PIBUTIDINE HYDROCHLORIDE]	> 46
Cc1ccccn1 [PICOLINE, ALPHA]	> 46
CC(C)(O)C1C2OC(=O)C1C1(O)CC3OC34C(=O)OC2C14C (stereo not given) [PICROTOXIN]	> 46
Clc1ccccc1-c1nc(-c2ccncc2)no1 [PIFEXOLUM]	> 46
CC[C@@H]1C(=O)OC[C@@H]1Cc1cncn1C [PILOCARPINE]	> 46
Cc1cccc(C)c1NC(=O)CC12CCCN1CCC2 [PILSICAINIDE HYDROCHLORIDE]	> 46
CC[C@@H]1/C=C(\C)C[C@H](C)C[C@H](OC)[C@H]2O[C@@](O)(C(=O)C(=O)N3CCCC[C@H]3C(=O)O[C@H](/C(C)=C/[C@@H]3CC[C@H](Cl)[C@H](OC)C3)[C@H](C)[C@@H](O)CC1=O)[C@H](C)C[C@@H]2OC [PIMECROLIMUS]	> 46
COc1ccc(-c2nc3ccc(C4=C(C)CC(=O)NN4)cc3[nH]2)cc1 [PIMOBENDAN]	> 46
CC(N/C(=N\C#N)Nc1ccncc1)C(C)(C)C (stereo not given) [PINACIDIL]	> 46
Cc1cccc(C)c1NC(=O)CN1CCCCCC1 [PINCAINIDUM]	> 46
CC(C)NCC(O)COc1cccc2[nH]ccc12 (stereo not given) [PINDOLOL]	> 46
CCc1ccc(CCOc2ccc(CC3SC(=O)NC3=O)cc2)nc1.Cl (stereo not given) [PIOGLITAZONE HYDROCHLORIDE]	> 46
CC[N+]1(C)CCCC(OC(=O)C(O)(c2ccccc2)c2ccccc2)C1.[Br-] (stereo not given) [PIPENZOLATE BROMIDE]	> 46
S=C(S)N1CCNCC1 [PIPERAZINE-CARBON DISULFIDE COMPLEX]	> 46
O=C(OCCN1CCCCC1)C(O)(c1ccccc1)c1ccccc1 [PIPETHANATE HYDROCHLORIDE]	> 46
CCC(C)CCCCC(=O)NC(CCN)C(=O)NC(C(=O)NC(CCN)C(=O)NC1CCNC(=O)C(C(C)O)NC(=O)C(CCN)NC(=O)C(CCN)NC(=O)C(CC(C)C)NC(=O)C(Cc2ccccc2)NC(=O)C(CCN)NC1=O)C(C)O.O=[S+]([O-])(O)O (stereo not given) [POLYMYXIN B SULFATE]	> 46
ClC1=CC=C2N(CC3CC3)C(=O)C\N=C(\C4=CC=CC=C4)C2=C1 [PRAZEPAM]	> 46
CC(C)CC(CN)CC(=O)O (stereo not given) [PREGABALIN]	> 46
CC(C)c1cccc(C(C)C)c1O [PROPOFOL]	> 46

Continued, values first:

IC50 of cell viability [µM]	SMILES
> 46	NC(=O)C1(N2CCCCC2)CCN(CCCC(=O)c2ccc(F)cc2)CC1 [PIPAMPERONE HYDROCHLORIDE]
> 46	CC1CCCCN1CCCOC(=O)c1ccccc1 (stereo not given) [PIPEROCAINE HYDROCHLORIDE]
> 46	c1ccc2c(c1)OCC(CN1CCCCC1)O2 (stereo not given) [PIPEROXANUM]
> 46	O=C(CCBr)N1CCN(C(=O)CCBr)CC1 [PIPOBROMAN]
> 46	O=C([O-])c1cc(O)c2c3nc4ccccc4oc-3cc(=O)c2n1 [PIRENOXINE]
> 46	CC/1=C(CCN2CCC(CC2)C(=O)C3=CC=C(F)C=C3)/C(=O)N4\C=C/C=C\C4=N1 [PIRENPERONE]
> 46	CN1CCN(CC(=O)N2c3ccccc3C(=O)Nc3cccnc32)CC1 [PIRENZEPINE]
> 46	c1cnc(N2CCN(Cc3ccc4c(c3)OCO4)CC2)nc1 [PIRIBEDIL]
> 46	CN1CC\C(CC1)=C2\C3=C(CCC4=CC=CC=C24)SC=C3 [PIZOTIFEN]
> 46	O=P([O-])([O-])OC[C@@H](O)CO [POTASSIUM GLYCEROPHOSPHATE]
> 46	CCCCCCC(O)C/C=C/CCCCCCCC(=O)O (stereo not given) [POTASSIUM RICINOLEATE]
> 46	CCCCCC[C@@H](O)C/C=C\CCCCCCCC(=O)O [POTASSIUM RICINOLEATE]
> 46	CC(=O)Nc1ccc(OCC(O)CNC(C)C)cc1 (stereo not given) [PRACTOLOL]
> 46	CCCN[C@H]1CCc2nc(N)sc2C1 [PRAMIPEXOLE DIHYDROCHLORIDE]
> 46	CC(C)[N+](C)(C)CC(O)COc1cccc2ccccc12 (stereo not given) [PRANOLII CHLORIDUM]
> 46	CC(C(=O)O)c1ccc2c(c1)Cc1cccnc1O2 (stereo not given) [PRANOPROFEN]
> 46	N=C(N)n1cccn1 [PRAXADINUM]
> 46	CC(=O)OCC(=O)[C@@]1(O)CCC2C3CCC/4=C/C(=O)/C=C\C4(C)C3C(O)C[C@@]12C (stereo not given in full) [PREDNISOLONE ACETATE]

IC50 of cell viability [µM]	SMILES
> 46	C[C@@]12CC(O)C3C(CCC/4=C/C(=O)/C=C\[C@]34C)C1CC[C@]2(O)C(=O)CO (stereo not given in full) [PREDNISOLONE]
> 46	CC[N+]1(CC)CCC(=C(c2ccccc2)c2ccccc2)C1C (stereo not given) [PRIFINIUM BROMIDE]
> 46	CCC1(c2ccccc2)C(=O)NCNC1=O [PRIMIDONE]
> 46	CCCC(C(=O)OCCN(CC)CC)(c1ccccc1)c1ccccc1.Cl [PROADIFEN HYDROCHLORIDE]
> 46	CCN(CC)CCNC(=O)c1ccc(N)cc1 [PROCAINAMIDE]
> 46	CC[C@H](NC(C)C)[C@H](O)C1=CC=C(O)C2=C1\C=C/C(=O)N2 [PROCATEROL]
> 46	O=C(O)CCc1nc2ccccc2[nH]1 [PROCODAZOLUM]
> 46	CC(CN1c2ccccc2Sc2ccccc21)N(C)C (stereo not given) [PROMETHAZINE]
> 46	CC(C)NCC(O)c1ccc2ccccc2c1 (stereo not given) [PRONETHALOL]
> 46	CC(C)[N+](C)(CCOC(=O)C1c2ccccc2Oc2ccccc21)C(C)C.[Br-] [PROPANTHELINE BROMIDE]
> 46	CCCn1cnc2c1c(=O)n(CCCCC(C)=O)c(=O)n2C [PROPENTOFYLLINE]
> 46	CCCOC(C(=O)OC1CCN(C)CC1)(c1ccccc1)c1ccccc1 [PROPIVERINE HYDROCHLORIDE]
> 46	CCCOC(=O)c1ccccc1 [PROPYL BENZOATE]
> 46	CCCOC(=O)c1ccccc1O [PROPYL SALICYLATE]
> 46	CCCCCCCCCCCCCCCCCC(=O)OCC(C)O (stereo not given) [PROPYLENE GLYCOL STEARATE SE]
> 46	CCCc1cc(C(N)=S)ccn1 [PROTHIONAMIDE]
> 46	NC(=O)[C@@H]1CCCN1C(=O)[C@H](Cc1cnc[nH]1)NC(=O)[C@@H]1CCC(=O)N1 [PROTIRELIN]
> 46	C=CC1=C(C)c2cc3[nH]c(cc4nc(cc5[nH]c(cc1n2)c(C)c5CCC(=O)[O-])C(CCC(=O)[O-])=C4C)c(C)c3C=C [PROTOPORPHYRIN DISODIUM]
